From US11186576B2, “Pyrazolo[1,5-A][1,3,5]triazine and pyrazolo[1,5-A]pyrimidine derivatives as CDK inhibitors” (Aurigene Discovery Technologies Limited, priority 2015, dated 2021)

Target: CDK7/CycH/MNAT1 (Homo sapiens (Human), UniProt P50613)
Experiment: Biochemical assay for CDK7 (TR-FRET kinase assay)
Conditions: 60 min pre-incubation, 1 mM ATP; for inhibition at 10 µM: 10 μM compound, read-out: % inhibition @ 10 μM; for IC50: read-out: IC50
Experimental: The ability of compounds to inhibit CDK7 kinase activity was tested in a TR-FRET assay using 5 nM of CDK7/CycH/MNAT1 obtained from Invitrogen, USA. Test compounds were pre-incubated with the kinase at room temperature for 60 min. After incubation, substrate mix [100 nM Ultra-light MBP (Perkin Elmer, USA) and 1 mM ATP (Sigma)] was added. The above reaction was stopped by the addition of 40 mM EDTA after 60 minutes of kinase reaction. 1 nM Eu-labelled antiphospho-MBP antibody [Perkin Elmer, USA] was added, mixed well and the fluorescence emission at 615 nm and 665 nm [excitation at 340 nm] was measured. The final DMSO concentration in the assay was 1%. For IC50 determination, appropriate concentrations were made by ⅓^rd serial dilutions of 10 mM DMSO stock solution of test compound. All the fluorescence measurements were made in a Victor 3 Multilabel Counter [Perkin Elmer, USA]. The IC50 was determined by fitting the dose response data to sigmoidal curve fitting equation using GraphPad Prism software V5. To identify compounds that inhibit CDK7 irreversibly, time depended inhibition studies were carried by pre-incubating compound with the enzyme at three time points (20, 60 and 180 min) and carrying out assay as described above.

CDK7/CycH/MNAT1, sequence (P50613 whole entry): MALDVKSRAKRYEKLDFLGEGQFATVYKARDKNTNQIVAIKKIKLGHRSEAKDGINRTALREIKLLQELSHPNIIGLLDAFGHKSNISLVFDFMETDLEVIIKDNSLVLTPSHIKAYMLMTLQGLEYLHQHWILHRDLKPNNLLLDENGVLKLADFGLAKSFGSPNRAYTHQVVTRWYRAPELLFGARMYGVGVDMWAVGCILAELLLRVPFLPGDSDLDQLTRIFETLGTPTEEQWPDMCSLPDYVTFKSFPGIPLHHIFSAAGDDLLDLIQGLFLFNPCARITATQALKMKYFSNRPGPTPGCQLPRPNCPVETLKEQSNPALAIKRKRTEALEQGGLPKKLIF
CDK7/CycH/MNAT1, sequence (P51946 whole entry partner): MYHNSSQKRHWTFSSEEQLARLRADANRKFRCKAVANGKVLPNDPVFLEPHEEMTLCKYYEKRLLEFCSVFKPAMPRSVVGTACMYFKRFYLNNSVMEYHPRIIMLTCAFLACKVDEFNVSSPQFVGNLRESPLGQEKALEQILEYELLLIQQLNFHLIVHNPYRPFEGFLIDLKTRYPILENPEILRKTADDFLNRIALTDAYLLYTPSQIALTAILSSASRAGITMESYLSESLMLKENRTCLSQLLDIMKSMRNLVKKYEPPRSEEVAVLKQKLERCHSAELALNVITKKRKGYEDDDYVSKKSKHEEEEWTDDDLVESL
CDK7/CycH/MNAT1, sequence (P51948 whole entry partner): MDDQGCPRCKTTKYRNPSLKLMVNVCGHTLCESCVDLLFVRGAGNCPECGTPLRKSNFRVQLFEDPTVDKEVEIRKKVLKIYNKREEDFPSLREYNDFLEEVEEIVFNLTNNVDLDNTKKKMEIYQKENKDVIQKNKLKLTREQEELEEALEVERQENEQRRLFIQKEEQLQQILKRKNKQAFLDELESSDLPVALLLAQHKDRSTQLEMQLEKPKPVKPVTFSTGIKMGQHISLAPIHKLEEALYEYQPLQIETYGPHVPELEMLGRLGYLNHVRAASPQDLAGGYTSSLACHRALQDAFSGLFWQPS

inhibition at 10 µM | IC50 | Structure (SMILES)
97% | < 300 nM | CC(C)c1cnn2c(NCc3ccccc3NC(=O)/C=C/CN(C)C)nc(NC3CCOCC3)nc12 [Compound 62, (E)-4-(dimethylamino)-N-(2-(((8-isopropyl-2-((tetrahydro-2H-pyran-4-yl)amino)pyrazolo[1,5-a][1,3,5]triazin-4-yl)amino)methyl)phenyl)but-2-enamide]
94% | 300 to 1000 nM | CC(C)c1cnn2c(NCc3ccc(NC(=O)/C=C/CN4CCCC4)cc3)nc(NC3CCOCC3)nc12 [Compound 63, (E)-N-(4-(((8-isopropyl-2-((tetrahydro-2H-pyran-4-yl)amino)pyrazolo[1,5-a][1,3,5]triazin-4-yl)amino)methyl)phenyl)-4-(pyrrolidin-1-yl)but-2-enamide]
86% | > 1000 nM | C/C=C/C(=O)N1CCC1C(=O)Nc1cccc(CNc2nc(NC3CCOCC3)nc3c(C(C)C)cnn23)c1 (centres unmarked) [Compound 65, (E)-1-(but-2-enoyl)-N-(3-(((8-isopropyl-2-((tetrahydro-2H-pyran-4-yl)amino)pyrazolo[1,5-a][1,3,5]triazin-4-yl)amino)methyl)phenyl)azetidine-2-carboxamide]

Second part, the compound before the results:

Structure (SMILES) | inhibition at 10 µM | IC50
CC(C)c1cnn2c(NCc3cccc(NC(=O)/C=C/CN4CCC(F)C4)c3)nc(NC3CCOCC3)nc12 (centres unmarked) [Compound 56, (E)-4-(3-fluoropyrrolidin-1-yl)-N-(3-(((8-isopropyl-2-((tetrahydro-2H-pyran-4-yl)amino)pyrazolo[1,5-a][1,3,5]triazin-4-yl)amino)methyl)phenyl)but-2-enamide] | 97% | < 300 nM
CC(C)c1cnn2c(NCc3cccc(NC(=O)/C=C/CN4CCC(F)(F)C4)c3)nc(NC3CCOCC3)nc12 [Compound 57, (E)-4-(3,3-difluoropyrrolidin-1-yl)-N-(3-(((8-isopropyl-2-((tetrahydro-2H-pyran-4-yl)amino)pyrazolo[1,5-a][1,3,5]triazin-4-yl)amino)methyl)phenyl)but-2-enamide] | 84% | > 1000 nM
CC(C)c1cnn2c(NCc3cccc(NC(=O)/C=C/CN4CCCC(F)C4)c3)nc(NC3CCOCC3)nc12 (centres unmarked) [Compound 58, (E)-4-(3-fluoropiperidin-1-yl)-N-(3-(((8-isopropyl-2-((tetrahydro-2H-pyran-4-yl)amino)pyrazolo[1,5-a][1,3,5]triazin-4-yl)amino)methyl)phenyl)but-2-enamide] | 96% | 300 to 1000 nM
CC(C)c1cnn2c(NCc3cc(F)cc(NC(=O)/C=C/CN(C)C)c3)nc(NC3CCOCC3)nc12 [Compound 59, (E)-4-(dimethylamino)-N-(3-fluoro-5-(((8-isopropyl-2-((tetrahydro-2H-pyran-4-yl)amino)pyrazolo[1,5-a][1,3,5]triazin-4-yl)amino)methyl)phenyl)but-2-enamide] | 98% | < 300 nM
CC(C)c1cnn2c(NCc3cccc(NC(=O)/C=C/CN(C)C)c3F)nc(NC3CCOCC3)nc12 [Compound 60, (E)-4-(dimethylamino)-N-(2-fluoro-3-(((8-isopropyl-2-((tetrahydro-2H-pyran-4-yl)amino)pyrazolo[1,5-a][1,3,5]triazin-4-yl)amino)methyl)phenyl)but-2-enamide] | 98% | < 300 nM
CC(C)c1cnn2c(NCc3cc(F)cc(NC(=O)/C=C/CN4CCOCC4)c3)nc(NC3CCOCC3)nc12 [Compound 61, (E)-N-(3-fluoro-5-(((8-isopropyl-2-((tetrahydro-2H-pyran-4-yl)amino)pyrazolo[1,5-a][1,3,5]triazin-4-yl)amino)methyl)phenyl)-4-morpholinobut-2-enamide] | 76% | > 1000 nM
CC(C)c1cnn2c(NCc3ccc(F)c(NC(=O)C4CCN(C(=O)/C=C/CN(C)C)C4)c3)nc(NC3CCOCC3)nc12 (centres unmarked) [Compound 64, (E)-1-(4-(dimethylamino)but-2-enoyl)-N-(2-fluoro-5-(((8-isopropyl-2-((tetrahydro-2H-pyran-4-yl)amino)pyrazolo[1,5-a][1,3,5]triazin-4-yl)amino)methyl)phenyl) pyrrolidine-3-carboxamide] | 91% | 300 to 1000 nM
